Source: ChEMBL document CHEMBL1140950, “Discovery of (2S,4R)-1-(2-aminoacetyl)-4-benzamidopyrrolidine-2-carboxylic acid hydrochloride (GAP-134)13, an orally active small molecule gap-junction modifier for the treatment of atrial fibrillation” (J Med Chem, 2009)
Active and inactive are the calls of the source. The rule behind the calls is not given here. Where a SMILES comes first, the peptide text is derived from it. [ ]: non-standard residue; d: D form. dHyp = O=C(O)[C@H]1C[C@H](O)CN1

Tests used:
Mus musculus [1] = assay: Antiarrhythmic effect in calcium chloride-induced CD1 mouse arrhythmia model assessed as gap-junction intracellular communication re-establishment-mediated prolongation of time to onset of cardiac conduction block at 10 pmol/kg, iv relative to control; assay type: functional, Heart
Mus musculus [2] = assay: Antiarrhythmic effect in calcium chloride-induced CD1 mouse arrhythmia model assessed as gap-junction intracellular communication re-establishment-mediated prolongation of time to onset of cardiac conduction block at 1 pmol/kg, iv relative to control; assay type: functional, Heart
Mus musculus [3] = assay: Antiarrhythmic effect in calcium chloride-induced CD1 mouse arrhythmia model assessed as gap-junction intracellular communication re-establishment-mediated prolongation of time to onset of cardiac conduction block at 100 pmol/kg, iv relative to control; assay type: functional, Heart
Mus musculus [4] = assay: Antiarrhythmic effect in calcium chloride-induced CD1 mouse arrhythmia model assessed as gap-junction intracellular communication re-establishment-mediated prolongation of time to onset of cardiac conduction block at 1 nmol/kg, iv relative to control; assay type: functional, Heart
[5] = Tmax in rat at 5 mg/kg, po; assay type: ADME, organism-based; set-up: dose 5 mg/kg, route oral; conditions: in vivo
Cardiac atrium = assay: Prevention of metabolic stress-induced conduction velocity slowing in Sprague-Dawley rat atrium at 10 uM by microelectrode based assay; assay type: functional, tissue-based
[6] = Volume of distribution at steady state in rat at 0.5 mg/kg, iv; assay type: ADME, organism-based; set-up: dose 0.5 mg/kg, route intravenous; conditions: in vivo, read-out: Vdss
[7] = Half life in rat at 0.5 mg/kg, iv; assay type: ADME, organism-based; set-up: dose 0.5 mg/kg, route intravenous; conditions: in vivo
Rattus norvegicus [8] = assay: (§1) Oral bioavailability in rat at 5 mg/kg; assay type: ADME, organism-based; conditions: in vivo
[9] = Half life in rat at 5 mg/kg, po; assay type: ADME, organism-based; set-up: dose 5 mg/kg, route oral; conditions: in vivo
[10] = Cmax in rat at 5 mg/kg, po; assay type: ADME, organism-based; set-up: dose 5 mg/kg, route oral; conditions: in vivo
Rattus norvegicus [11] = assay: (§2) AUC in rat at 5 mg/kg, po; assay type: ADME, organism-based, Plasma; set-up: dose 5 mg/kg, route oral; conditions: in vivo
[12] = Clearance in rat at 0.5 mg/kg, iv; assay type: ADME, organism-based; set-up: dose 0.5 mg/kg, route intravenous; conditions: in vivo
[13] = as §1; assay type: ADME, organism-based; conditions: in vivo
[14] = as §2; assay type: ADME, organism-based, Plasma; set-up: dose 5 mg/kg, route oral; conditions: plasma
C6 [15] = assay: Reduction of simulated ischemia-induced cell swelling in rat C6 cells; assay type: functional, cell-based
Mus musculus [16] = assay: Antiarrhythmic effect in calcium chloride-induced po dosed CD1 mouse arrhythmia model assessed as gap-junction intracellular communication re-establishment-mediated prolongation of time to onset of cardiac conduction block relative to control; assay type: functional, Heart
Cytochrome P450 3A4 = Cytochrome P450 3A4 (Homo sapiens, UniProt P08684); assay: Inhibition of CYP3A4 at 3 uM; assay type: ADME
Chain of Cytochrome P450 3A4 (P08684 whole entry): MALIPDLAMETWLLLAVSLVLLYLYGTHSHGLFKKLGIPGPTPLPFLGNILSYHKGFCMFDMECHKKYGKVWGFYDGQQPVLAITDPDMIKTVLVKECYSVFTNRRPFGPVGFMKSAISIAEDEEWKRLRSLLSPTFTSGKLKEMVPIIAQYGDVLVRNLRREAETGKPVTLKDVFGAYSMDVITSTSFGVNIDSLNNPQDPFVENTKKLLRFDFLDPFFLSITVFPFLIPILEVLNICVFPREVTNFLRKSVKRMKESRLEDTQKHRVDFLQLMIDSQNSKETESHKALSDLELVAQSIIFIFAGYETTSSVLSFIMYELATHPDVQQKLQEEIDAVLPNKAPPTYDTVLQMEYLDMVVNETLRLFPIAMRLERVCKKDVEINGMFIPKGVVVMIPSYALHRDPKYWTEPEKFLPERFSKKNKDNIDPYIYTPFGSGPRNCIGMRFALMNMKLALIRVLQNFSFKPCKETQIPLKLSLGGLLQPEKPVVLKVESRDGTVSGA

C6 [17] = assay: Reduction of simulated ischemia-induced calcein uptake in rat C6 cells; assay type: functional, cell-based
[18] = Oral bioavailability in dog; assay type: ADME, organism-based, Canis lupus familiaris; conditions: in vivo
[19] = biological target: Voltage-gated inwardly rectifying potassium channel KCNH2 (Homo sapiens, UniProt Q12809); assay: Inhibition of human ERG
Chain of Voltage-gated inwardly rectifying potassium channel KCNH2 (Q12809 whole entry): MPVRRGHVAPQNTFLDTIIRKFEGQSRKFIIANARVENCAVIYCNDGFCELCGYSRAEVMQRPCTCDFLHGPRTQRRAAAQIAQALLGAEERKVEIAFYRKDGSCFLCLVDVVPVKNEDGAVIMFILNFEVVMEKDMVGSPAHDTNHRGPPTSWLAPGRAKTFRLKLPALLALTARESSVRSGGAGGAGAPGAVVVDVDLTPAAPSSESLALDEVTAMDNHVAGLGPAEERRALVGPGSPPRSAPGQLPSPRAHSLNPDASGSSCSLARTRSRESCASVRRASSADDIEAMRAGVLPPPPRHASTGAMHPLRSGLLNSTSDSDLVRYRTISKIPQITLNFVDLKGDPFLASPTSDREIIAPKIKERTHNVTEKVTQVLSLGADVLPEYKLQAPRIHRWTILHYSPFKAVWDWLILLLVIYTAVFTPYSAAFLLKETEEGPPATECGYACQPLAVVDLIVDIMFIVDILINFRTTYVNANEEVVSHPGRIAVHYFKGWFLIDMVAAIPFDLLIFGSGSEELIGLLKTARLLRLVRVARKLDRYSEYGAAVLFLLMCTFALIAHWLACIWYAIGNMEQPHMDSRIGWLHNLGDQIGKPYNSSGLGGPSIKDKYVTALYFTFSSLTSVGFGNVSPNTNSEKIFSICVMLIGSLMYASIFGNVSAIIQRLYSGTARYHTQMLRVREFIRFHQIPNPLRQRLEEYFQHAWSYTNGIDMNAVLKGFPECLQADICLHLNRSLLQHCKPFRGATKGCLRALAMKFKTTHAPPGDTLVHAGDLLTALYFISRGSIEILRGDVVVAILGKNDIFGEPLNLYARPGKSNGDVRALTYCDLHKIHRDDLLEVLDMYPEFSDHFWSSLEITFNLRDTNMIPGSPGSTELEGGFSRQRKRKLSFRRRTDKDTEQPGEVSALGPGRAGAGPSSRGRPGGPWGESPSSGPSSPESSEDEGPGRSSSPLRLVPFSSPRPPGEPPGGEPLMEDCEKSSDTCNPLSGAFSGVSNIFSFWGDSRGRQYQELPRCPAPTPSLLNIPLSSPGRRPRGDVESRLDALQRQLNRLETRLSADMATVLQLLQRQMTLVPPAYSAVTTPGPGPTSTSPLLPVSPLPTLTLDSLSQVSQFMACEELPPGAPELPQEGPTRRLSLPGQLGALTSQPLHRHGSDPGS

Cytochrome P450 2C9 = Cytochrome P450 2C9 (Homo sapiens, UniProt P11712); assay: Inhibition of CYP2C9 at 3 uM; assay type: ADME
Chain of Cytochrome P450 2C9 (P11712 whole entry): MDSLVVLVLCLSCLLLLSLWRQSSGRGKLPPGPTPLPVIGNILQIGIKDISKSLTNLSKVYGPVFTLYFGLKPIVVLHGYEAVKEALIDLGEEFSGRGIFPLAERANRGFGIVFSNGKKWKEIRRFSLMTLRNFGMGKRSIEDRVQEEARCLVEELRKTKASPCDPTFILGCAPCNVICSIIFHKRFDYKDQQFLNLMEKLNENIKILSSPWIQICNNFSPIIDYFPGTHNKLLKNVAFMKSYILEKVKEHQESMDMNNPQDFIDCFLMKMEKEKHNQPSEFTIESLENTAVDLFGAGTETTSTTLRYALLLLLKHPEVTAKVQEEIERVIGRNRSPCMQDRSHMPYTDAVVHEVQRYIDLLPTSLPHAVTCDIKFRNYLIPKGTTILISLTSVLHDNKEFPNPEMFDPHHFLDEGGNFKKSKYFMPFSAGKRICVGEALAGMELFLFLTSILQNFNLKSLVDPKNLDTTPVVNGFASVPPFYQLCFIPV

Cytochrome P450 2D6 = Cytochrome P450 2D6 (Homo sapiens, UniProt P10635); assay: Inhibition of CYP2D6 at 3 uM; assay type: ADME
Chain of Cytochrome P450 2D6 (P10635 whole entry): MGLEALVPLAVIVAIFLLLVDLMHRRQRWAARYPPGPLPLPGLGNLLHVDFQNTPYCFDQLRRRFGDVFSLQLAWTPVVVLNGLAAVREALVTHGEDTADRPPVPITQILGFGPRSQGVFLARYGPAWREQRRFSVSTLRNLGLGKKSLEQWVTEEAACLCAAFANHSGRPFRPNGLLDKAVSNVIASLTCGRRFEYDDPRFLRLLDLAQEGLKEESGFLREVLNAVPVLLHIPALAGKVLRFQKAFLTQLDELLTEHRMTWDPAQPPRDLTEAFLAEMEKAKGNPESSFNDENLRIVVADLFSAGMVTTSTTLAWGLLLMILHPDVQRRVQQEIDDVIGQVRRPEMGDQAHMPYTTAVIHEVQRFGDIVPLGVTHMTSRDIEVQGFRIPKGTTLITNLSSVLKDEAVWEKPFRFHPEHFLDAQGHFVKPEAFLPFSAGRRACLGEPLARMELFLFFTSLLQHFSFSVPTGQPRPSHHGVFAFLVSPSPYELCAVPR

Mus musculus [20] = assay: Antiarrhythmic effect in calcium chloride-induced CD1 mouse arrhythmia model assessed as gap-junction intracellular communication re-establishment-mediated prolongation of time to onset of cardiac conduction block at 10 mg/kg, po relative to control; assay type: functional, organism-based; set-up: dose 10 mg/kg; conditions: Heart

| Compound | Activity (Mus musculus [1]) [%] | Activity (Mus musculus [2]) [%] | Activity (Mus musculus [3]) [%] | Activity (Mus musculus [4]) [%] | Tmax [5] [min] | Activity (Cardiac atrium) | Vd [6] [L/kg] | half-life [7] [min] | half-life [9] [min] | Cmax [10] [µg/mL] | other results |
| --- | --- | --- | --- | --- | --- | --- | --- | --- | --- | --- | --- |
| NCC(=O)NCCCC[C@@H](NC(=O)c1ccc([N+](=O)[O-])cc1)C(=O)O | 177 | 192 | 151 | 158 | – | – | – | – | – | – | – |
| NC(=O)C[C@H](NC(=O)CO)C(=O)N[C@@H](Cc1ccc(O)cc1)C(N)=O | 232 | 188 | 203 | 187 | 24 | Active | 0.9 | 18 | 30 | 0.0315 | F (Rattus norvegicus [8]): 0.7%; AUC (Rattus norvegicus [11]): 0.036 µg·h/mL |
| COc1ccc(C(=O)NCC(=O)NCCCC[C@@H](N)CC(=O)O)cc1 | 133 | 220 | 128 | 164 | 45 | Active | 0.4 | 18 | 90 | 0.028 | clearance [12]: 1.86 L/h/kg; bioavailability [13]: 2%; AUC [14]: 0.071 µg·h/mL |
| Cl.NCC(=O)N1C[C@H](NC(=O)c2ccccc2)C[C@H]1C(=O)O | 207 | 162 | 148 | 173 | 30 | Active | 0.61 | 48 | 114 | 0.105 | Activity (C6 [15]): Active; Activity (Mus musculus [16]): 200%; clearance [12]: 1.32 L/h/kg; Activity (Cytochrome P450 3A4): Not Active; Activity (C6 [17]): Dose-dependent effect; bioavailability [13]: 9%; bioavailability [18]: 21%; AUC [14]: 0.36 µg·h/mL; Activity [19]: Not Active; Activity (Cytochrome P450 2C9): Not Active; Activity (Cytochrome P450 2D6): Not Active |
| CC(=O)N[C@H](Cc1ccc(O)cc1)C(=O)N1CCC[C@@H]1C(=O)N1C[C@@H](O)C[C@@H]1C(=O)NCC(=O)N[C@H](C)C(=O)NCC(N)=O [ROTIGAPTIDE] (Ac-[dY][dP][dHyp]G[dA]G-NH2) | 207 | 199 | 152 | 156 | – | Active | – | – | – | – | Activity (Mus musculus [20]): Active; Activity (C6 [17]): Dose-dependent effect |
| CC(=O)N[C@@H](C)C(=O)NCC(=O)N[C@@H](CC(N)=O)C(=O)N[C@@H](Cc1ccc(O)cc1)C(N)=O (Ac-AGNY-NH2) | 157 | 228 | 205 | 136 | – | – | – | – | – | – | – |
| N[C@H](CCCCNC(=O)CNC(=O)c1ccc([N+](=O)[O-])cc1)CC(=O)O | 206 | 124 | 197 | 201 | – | – | – | – | – | – | – |
